Each structure is given as a SMILES string. Where a name gives a salt, the structure may show the parent alone.

Test [1] concerns rat formalin induced pain model. Description: Rat formalin induced pain model (leg-raising times). It is filed as in vivo, SD rats. The settings on record: 100 mg/kg intragastric, formalin 1 h later; Mean ± SD, n=10. The text has this:
Rat formalin induced pain model is used to test in vivo analgesic effect of hydrochloride of compound III-10.
Rat formalin induced pain model is established by Dubuisson and Dennis in 1977. It can simulate some characteristics of human pains after damages, and its persistent tension pain is similar to common clinical chronic pains. Its experimental results have excellent repeatability, and it is considered to be universally accepted pain model which is more reliable than short-term mechanical or thermal stimulation models. It has been generally used in investigation and determination of pain mechanism, pain physiology and pharmacology, screening of the analgesic effects of drugs and evaluation of analgesic drugs.
Test compounds are prepared to relevant doses with 0.5% CMC-Na before use.
Formaldehyde solution: batch number HN20041109, HuaDong reagent industrial company. In experiment, it is diluted to 5% formaldehyde solution with 0.9% sodium chloride injection.
90 SD rats of weight (240-350 g), half female and half male, are fed for I week to adapt the environment, with 5 in each cage during feeding, the rats are fed under standard condition during experiments with free access to water and food.
90 SD rats of weight 240-350 g are randomly divided into 9 groups which are negative control group, model group, gabapentin group, high, median and low dosage group of each compound respectively, with 10 rats in each group, half female and half male. Relevant test compounds are given by intragastric administration, and 5% formalin (50 ul) is subcutaneously injected at the left rear foot in 1 h to model, formation of pichu indicates a successful modeling. 0.5% (weight percentage) CMC-Na is given by intragastric administration in negative control group, and normal saline (50 ul) is subcutaneously injected at the bottom of right rear foot in 1 h. After modeling, the leg-raising times in 1-2 minutes and 5-6 minutes are observed. The time period 10-60 minutes are divided into 5 minutes intervals, and the leg-raising times of the first minute of each interval (10-11, 15-16, 20-21, 25-26, 30-31, 35-36, 40-41, 45-46, 50-51, 55-56, 60-61) are observed.
Measuring index is expressed as mean±standard deviation (Mean±SD), comparison is analyzed with One-way ANOVA.

For another test, the target named is T1, 5-HT1A receptor (Rattus norvegicus, UniProt P19327).
T1 construct: The supernatant is discarded and the precipitate (membrane receptor) is stocked; from tissue; host or cells: SD rat cerebral cortex membranes
T1 sequence (P19327 1-422): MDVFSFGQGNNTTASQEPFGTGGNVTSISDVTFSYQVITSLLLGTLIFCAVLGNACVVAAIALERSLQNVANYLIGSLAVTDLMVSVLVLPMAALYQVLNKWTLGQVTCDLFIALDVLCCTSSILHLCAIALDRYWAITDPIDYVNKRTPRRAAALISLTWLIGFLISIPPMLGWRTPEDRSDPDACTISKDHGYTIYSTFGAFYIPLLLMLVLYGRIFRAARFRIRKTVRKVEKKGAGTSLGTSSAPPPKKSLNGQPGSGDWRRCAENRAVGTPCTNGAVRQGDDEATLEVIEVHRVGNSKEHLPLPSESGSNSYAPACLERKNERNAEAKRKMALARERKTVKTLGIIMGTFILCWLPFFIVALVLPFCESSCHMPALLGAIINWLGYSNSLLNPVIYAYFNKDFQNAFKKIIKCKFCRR
Kind of test: In vitro competitive binding test to 5-HT1A receptor ([3H]-8-OH-DPAT, rat cerebral cortex membranes). The settings on record: 10 μmol/L compound; hydrochloride salts; rat cerebral cortex membrane; unit (I %); read-out: 5-HT1A affinity [3H]-8-OH-DPAT (inhibition rate of radioligand binding). How it is done:
(§1) Animals: clean grade SD rats, female and male, 250-300 g, purchased from Nanjing QingLongshan animal breeding center.
(§2) Radioligand: [^3H]-8-OH-DPAT, [^3H]-Ketanserin, purchased from PerkinElmer company; 5-HT and Methysergide, purchased from Sigma company.
Preparation of 5-HT1A buffer solution: Tris-HCl buffer solution (0.05M, 1000 ml) is added with certain amount of ascorbic acid, pargyline and CaCl2, to give final concentrations of 0.1%(ascorbic acid), 10 um (pargyline) and 4 mM (CaCl2) separately.
(§3) Preparation of radioligand: 50 μl mother liquor is diluted to 5 ml with anhydrous ethanol, and stocked for use.
(§4) Preparation of non-labeling ligand: appropriate amounts of 5-HT and Methysergide are dissolved in ultrapure water to give solutions with final concentrations of 2*10^−5M respectively.
(§5) Preparation of solutions of various test drugs: appropriate amount of each drug is first diluted to 1 ml with ultrapure water as stock solution. When needed, 10 μl of the stock solution is diluted to 1 ml to reach a level of 10^−5M.
(§6) Rats are decapitated to get the brains. The target tissues (left and right cerebral cortex) are separated on ice, added with 10-fold volume (V/W) of ice-cold buffer, and homogenized with tissue Homogenizer for several seconds 3 times to form tissue homogenate. The tissue homogenate is centrifuged with low temperature superb centrifuge (12000 r/min) 3 times, with each for 20 minutes. The supernatant is discarded and the precipitate (membrane receptor) is stocked in −80° C. ultralow temperature freezer.
(§7) The membrane receptor is added with certain volume of ice-cold buffer and homogenized to make membrane receptor solutions at certain concentrations.
(§8) Various reaction solutions are added in the following sequences and ratios:
(§9) Total binding tube: 100 μl membrane receptor+100 μl buffer+10 μl radioligand
(§10) Non-specific tube: 100 μl membrane receptor+100 μl non-labeling ligand+10 μl radioligand
(§11) Test compound tube: 100 μl membrane receptor+100 μl drug solution+10 μl radioligand
(§12) Above tubes are put in 37° C. water bath immediately after finishing adding radioligand into each of them and then incubated for 25 min. After 25 min, the tubes are put in ice water to quench the reaction. Each tube is poured into suction filtration device to filter, and the filter membrane is washed with 5-10 ml ice-cold buffer twice. The filter membrane is dried in 85° C. oven, and then put into test tubes, and added with certain amount of scintillation liquid to soak overnight. Radioactivity is determined using liquid scintillation counter.
(§13) Each compound is tested in duplicate, and the tests are carried out independently twice.

A further test deals with T2, 5-HT2A receptor (Rattus norvegicus, UniProt P14842).
T2 construct: The supernatant is discarded and the precipitate (membrane receptor) is stocked; from tissue; host or cells: SD rat cerebral cortex membranes
T2 sequence (P14842 whole entry): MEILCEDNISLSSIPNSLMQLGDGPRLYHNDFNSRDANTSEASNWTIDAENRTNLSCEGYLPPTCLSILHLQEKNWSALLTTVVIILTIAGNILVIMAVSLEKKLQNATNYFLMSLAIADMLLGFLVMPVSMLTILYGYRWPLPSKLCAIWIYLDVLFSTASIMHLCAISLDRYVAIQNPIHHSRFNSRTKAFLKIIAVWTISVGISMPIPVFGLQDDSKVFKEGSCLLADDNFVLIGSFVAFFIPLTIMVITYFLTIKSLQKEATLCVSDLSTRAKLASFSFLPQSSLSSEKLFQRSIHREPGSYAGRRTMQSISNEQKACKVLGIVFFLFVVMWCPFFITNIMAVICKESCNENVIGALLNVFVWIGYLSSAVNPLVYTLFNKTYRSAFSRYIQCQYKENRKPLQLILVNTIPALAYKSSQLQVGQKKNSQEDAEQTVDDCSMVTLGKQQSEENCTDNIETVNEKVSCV
Kind of test: In vitro competitive binding test to 5-HT2A receptor ([3H]-Ketanserin, rat cerebral cortex membranes). As to conditions: 10 μmol/L compound; hydrochloride salts; rat cerebral cortex membrane; unit (I %); read-out: 5-HT2A affinity [3H]-Ketanserin (inhibition rate of radioligand binding). The method, then:
as §1, §2
Preparation of 5-HT2A buffer solution: Tris (6.05 g) is dissolved in ultrapure water (1000 ml). PH is adjusted to 7.4 with HCl. Tris-HCl buffer solution (0.05M) is used.
as §3, §4, §5, §6, §7, §8, §9, §10, §11, §12, §13

For a further test, the target named is hSERT (Homo sapiens, UniProt P31645). Description: In vitro inhibition of serotonin reuptake ([3H]-5-HT) in cells stably expressing hSERT. The settings on record: read-out: Inhibition rates of SERT reuptake [3H]-5-HT.
Sequence of hSERT (P31645 whole entry): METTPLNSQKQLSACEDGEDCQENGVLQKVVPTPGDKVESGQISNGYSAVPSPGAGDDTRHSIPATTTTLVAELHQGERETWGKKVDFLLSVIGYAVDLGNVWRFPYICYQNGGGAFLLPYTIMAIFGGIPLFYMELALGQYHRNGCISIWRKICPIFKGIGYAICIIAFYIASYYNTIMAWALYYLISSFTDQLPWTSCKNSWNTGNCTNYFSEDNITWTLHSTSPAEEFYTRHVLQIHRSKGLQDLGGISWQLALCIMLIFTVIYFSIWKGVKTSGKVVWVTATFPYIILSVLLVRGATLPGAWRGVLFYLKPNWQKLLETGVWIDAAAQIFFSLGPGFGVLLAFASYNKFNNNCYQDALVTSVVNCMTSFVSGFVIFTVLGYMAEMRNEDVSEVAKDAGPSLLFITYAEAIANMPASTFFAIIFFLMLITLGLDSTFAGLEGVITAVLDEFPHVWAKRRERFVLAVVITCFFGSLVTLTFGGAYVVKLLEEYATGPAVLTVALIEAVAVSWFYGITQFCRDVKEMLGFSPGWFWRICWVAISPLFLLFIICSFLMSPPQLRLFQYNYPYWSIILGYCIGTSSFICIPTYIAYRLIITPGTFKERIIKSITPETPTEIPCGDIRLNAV
The subject of test [2] is mice tail suspension test. Description: Mice tail suspension test (immobility time). In kind it is in vivo, KM mice. The settings on record: 40 mg/kg intragastric, 1 h post dose, last 4 min of 6 min, n=10, mean ± SD. How it is done:
Control drug: duloxetine hydrochloride, fluoxetine hydrochloride
A few days before the experiment, mice with qualified body weight are selected and divided into groups. The experiments are carried out in 2 days. In D1, mice are put on bar of tail suspension instrument for 6 min, the immobility time of the last 4 min are recorded. […] Blank control group, positive control group and each test compound group are set.
The mean values of immobility time for each group are calculated, the results are expressed as “mean±standard deviation”.

Description for hSERT: Positive control compound: fluoxetine.
Sample treatment: about 1 mg of compound is weighted and added with relative amount of DMSO to prepare 10^−2M stock solution. Before use, the stock solution is diluted with HBSS buffer to relative concentrations. Each sample is dissolved in DMSO completely. The dilution is clear and without obvious cloudy and formation of precipitate after adding with buffer.
(1) Cells which can stably express hSERT are seeded into 24-well plates respectively.
(2) Experiments are started when the cell confluence reaches 80-90%.
(3) Liquids in the plates are discarded, the plates are washed with PBS twice at room temperature.
(5) Plates are incubated at 37° C. for 10 min after slight oscillation.
(6) Then 20 μl radioisotope is added (cpm: about 20000).
(7) Plates are incubated at 37° C. for 5 min after slight oscillation.
(8) Liquids in the plates are discarded, the plates are washed with ice-cold PBS twice, all the liquids in the plates are removed away.
(9) NaOH (2M, 100 μl) is added into each well to lyse the cells. All the lysates are combined and put on GF/C glass fiber filter paper.
(10) The filter papers are dried and put in 0.5 ml centrifuge tube, 500 μl lipid soluble scintillation liquid are added. Radioactivity is determined by MicroBeta liquid scintillation counter. Each concentration is tested intriplicate, and tests are carried out independently twice.
Test concentration is 10 μmol/L. The positive drug provided is set as control (10 μmol/L) in each experiment. The experimental processes are the same as the above process.

Consider `NCC1(CC(=O)O)CCCCC1` [Gabapentin, gabapentin, reference compound], for which, in test [1], the “phase I times (leg-raising times)” value is on record as 11.60 ± 6.75 time and the “phase II times (leg-raising times)” value was found to be 74.7 ± 39.45 time.

On to `COc1ccccc1N1CCN(CCN(C)c2cccc(C#N)c2)CC1` [III-1, 3-((2-(4-(2-methoxyphenyl)piperazin-1-yl)ethyl)methylamino)benzonitrile], for which the inhibition at 10 µM on 5-HT1A receptor was 154%; at 5-HT2A receptor it was 98.9%; on hSERT, 97.3%.

On to `CN(CCN1CCN(c2cccc(C(F)(F)F)c2)CC1)c1cccc(C#N)c1` [III-2, 3-(methyl(2-(4-(3-trifluoromethylphenyl)piperazin-1-yl)ethyl)amino)benzonitrile], for which the inhibition at 10 µM on 5-HT1A receptor came to 119%; on 5-HT2A receptor it was 131%; on hSERT, 97.8%.

Consider `CN(CCN1CCN(c2cccc(Cl)c2)CC1)c1cccc(C#N)c1` [III-3, 3-((2-(4-(3-chlorophenyl)piperazin-1-yl)ethyl)methylamino)benzonitrile], for which the inhibition at 10 µM worked out at 155% at 5-HT1A receptor, 107% at 5-HT2A receptor and 98.3% on hSERT.

Regarding `CN(CCN1CCN(c2cccc(Cl)c2Cl)CC1)c1cccc(C#N)c1` [III-4, 3-((2-(4-(2,3-dichlorophenyl)piperazin-1-yl)ethyl)methylamino)benzonitrile], the values for the inhibition at 10 µM on 5-HT1A receptor, at 5-HT2A receptor and on hSERT were 126%, 104% and 93.4%, respectively.

Take `Cc1cccc(N2CCN(CCN(C)c3cccc(C#N)c3)CC2)c1C` [III-5, 3-((2-(4-(2,3-dimethylphenyl)piperazin-1-yl)ethyl)methylamino)benzonitrile]: the inhibition at 10 µM was determined as 121% at 5-HT1A receptor, 134% at 5-HT2A receptor and 99.7% on hSERT.

`COc1c(Cl)ncnc1N1CCN(CCN(C)c2cccc(C#N)c2)CC1` [III-6, 3-((2-(4-(6-chloro-5-methoxylpyrimidin-1-yl)piperazin-1-yl)ethyl)methylamino)benzonitrile]: the results for the inhibition at 10 µM on 5-HT1A receptor, on 5-HT2A receptor and at hSERT were 91.6%, 84.5% and 98.3%, respectively.

As for `COc1cncnc1N1CCN(CCN(C)c2cccc(C#N)c2)CC1` [III-7], the inhibition at 10 µM turned out to be 83.2% at 5-HT1A receptor, 101% on 5-HT2A receptor and 81.7% at hSERT.

As for `COc1ccccc1N1CCN(CCCN(C)c2cccc(C#N)c2)CC1` [III-9, 3-((3-(4-(2-methoxyphenyl)piperazin-1-yl)propyl)methylamino)benzonitrile], the figures for the inhibition at 10 µM at 5-HT1A receptor, at 5-HT2A receptor and on hSERT were 125%, 154% and 104%, respectively.

With `Cc1cccc(N2CCN(CCCN(C)c3cccc(C#N)c3)CC2)c1C` [III-11, 3-((3-(4-(2,3-dimethylphenyl)piperazin-1-yl)propyl)methylamino)benzonitrile], the values for the inhibition at 10 µM on 5-HT1A receptor, on 5-HT2A receptor and at hSERT were 102%, 145% and 96.6%, respectively.

Consider `COc1cncnc1N1CCN(CCCN(C)c2cccc(C#N)c2)CC1` [III-12], for which the values for the inhibition at 10 µM at 5-HT1A receptor, at 5-HT2A receptor and at hSERT were 114%, 132% and 94.4%, respectively.

On to `CN(CCCN1CCN(c2cccc(Cl)c2Cl)CC1)c1cccc(C#N)c1` [III-13, 3-((3-(4-(2,3-dichlorophenyl)piperazin-1-yl)propyl)methylamino)benzonitrile], for which the results for the inhibition at 10 µM on 5-HT1A receptor, on 5-HT2A receptor and at hSERT were 119%, 149% and 86.9%, respectively.

For `CCN(CCCN1CCN(c2ccccc2OC)CC1)c1cccc(C#N)c1` [III-14, 3-((3-(4-(2-methoxyphenyl)piperazin-1-yl)propyl)ethylamino)benzonitrile], the inhibition at 10 µM turned out to be 112% at 5-HT1A receptor, 135% at 5-HT2A receptor and 98.2% at hSERT.

Turning to `CNCC[C@H](Oc1cccc2ccccc12)c1cccs1` [dutoxetine, duloxetine hydrochloride], the Immobility time in test [2] (hydrochloride) is 28.2 ± 27.3 S; in test [2] (listed as dutoxetine hydrochloride, hydrochloride), “significantly decreased immobility time”.

Regarding `CNCCC(Oc1ccc(C(F)(F)F)cc1)c1ccccc1` (stereo not drawn) [fluoxetine], the Immobility time is 69.9 ± 27.4 S in test [2] and “significantly decreased immobility time” in test [2] (listed as fluoxetine hydrochloride).
